Laboratory results as given in US20140161897A1, “METHOD FOR TREATING CANCERS, SUCH AS MYELOMA AND BREAST CANCER, WITH A COMBINATION OF TBL-12 AND VELCADE” (priority 2012, published 2014).

System: human myeloma cells (U266, MM1, KMS1, and APR1)
Assay: MTT cell survival of IL-6 or TNFα stimulated myeloma cells
Format: cell-based
Conditions: U-266, with constant TBL-12 100 ug/ml, read-out: IC50 for Velcade, in combination with the TBL-12
Method: Different human myeloma cells (U266, MM1, KMS1, and APR1), which are commercially available were cultured in standard 96 well plates using standard methods to exponential growth face. The cells were stimulated by either 1L-6 (5 ng/ml), or TNFα (5 ng/ml).
The cells were then contacted with a combination of a constant concentration of TBL-12 (100 ug/ml), either by itself, or with various concentration of Velcade (2.5, 5, 10, and 15 ng). Cells which received neither TBL-12 nor Velcade were used as a control. Cell survival was measured, using an MTT assay, at 24, 48, and 72 hours.

## CC(C)C[C@H](NC(=O)[C@H](Cc1ccccc1)NC(=O)c1cnccn1)B(O)O [Velcade, Bortezomib]
  IC50: ~5 ng/mL
